# According to US5358947A, “Angiotensin II receptor blocking 2,3-substituted pyrazolo[1,5-a]-1,3,5-triazin-4(3H)-ones” (American Cyanamid Company, priority 1993, dated 1994):
# “And” between values parts separate entries of the source, which are not always exact repeats. Identical values can stand only once.
# Tested on: ANGIOTENSIN II (AII) VASOPRESSOR RESPONSE
# Assay: AII Challenge: angiotensin II (AII) vasopressor response in conscious rats
# Format: in vivo
# Set-up: Response After AII / Change / Average Change: unit not given here
# Settings: 10 mg/kg i.v.; for Change / Response After AII / Control Before AII: individual rat, listed as Ex. 12; for Control Before AII: in mmHg (unit assumed); for % Inhibition / Average Change: n = 2
# Source text: By administering a compound of this invention to a rat, and then challenging with angiotensin II, a blockage of the vasopressor response is realized.
# Conscious Male Okamoto-Aoki SHR, 16-20 weeks old, weighing approximately 330 g are purchased from Charles River Labs (Wilmington, Mass.). Conscious rats are restrained in a supine position with elastic tape. The area at the base of the tail is locally anesthetized by subcutaneous infiltration with 2% procaine. The ventral caudal artery and vein are isolated, and a cannula made of polyethylene (PE) 10-20 tubing (fused together by heat) is passed into the lower abdominal aorta and vena cava, respectively. The cannula is secured, heparinized (1,000 I.U./ml), sealed and the wound is closed. The animals are placed in plastic restraining cages in an upright position. The cannula is attached to s Statham P23Db pressure transducer, and pulsatile blood pressure is recorded to 10-15 minutes with a Gould Brush recorder. (Chan et al., (Drug Development Res., 18:75-94, 1989).
# Angiotensin II (human sequence, Sigma Chem. Co., St. Louis, Mo.) of 0.05 and 0.1 ug/kg i.v. is injected into all rats (predosing response.). Then a test compound, vehicle or a known angiotensin II antagonist is administered i.v., i.p. or orally to each set of rats. The two doses of angiotensin II are given to each rat again at 30, 60, 90, 120, 180, 240 and 300 minutes post dosing the compound or vehicle. The vasopressor response of angiotensin II by a compound is calculated using the vasopressor response (increase in systolic blood pressure) of angiotensin II of each rat predosing the compound as 100%. A compound is considered active if at 30 mg/kg i.v. it antagonized at least 50% of the response.
# [1] = AII 0.05 mcg/kg, 30 min post dose
# [2] = AII 0.05 mcg/kg, 60 min post dose
# [3] = AII 0.05 mcg/kg, 90 min post dose
# [4] = AII 0.05 mcg/kg, 120 min post dose
# [5] = AII 0.05 mcg/kg, 180 min post dose
# [6] = AII 0.05 mcg/kg, 240 min post dose
# [7] = AII 0.05 mcg/kg, 300 min post dose
# [8] = AII 0.1 mcg/kg, 30 min post dose
# [9] = AII 0.1 mcg/kg, 60 min post dose
# [10] = AII 0.1 mcg/kg, 90 min post dose
# [11] = AII 0.1 mcg/kg, 120 min post dose
# [12] = AII 0.1 mcg/kg, 180 min post dose
# [13] = AII 0.1 mcg/kg, 240 min post dose
# [14] = AII 0.1 mcg/kg, 300 min post dose
structure (smiles),measurement,setting,value
"CCCCc1nc2cc(-c3ccc(F)cc3)nn2c(=O)n1Cc1ccc(-c2ccccc2-c2nnn[nH]2)cc1 [Example 12, 2-Butyl-7-(4-fluorophenyl)-3-[[2'-(1H-tetrazol-5-yl)[1,1'-biphenyl]-4-yl]methyl]pyrazolo[1,5-a]-1,3,5-triazin-4(3H)-one]",Change,[1],10 and 20
same,Response After AII,[1],205 and 245
same,Control Before AII,[1],195 and 225
same,% Inhibition,[1],73%
same,Average Change,[1],15
same,Change,[2],20 and 10
same,Response After AII,[2],200 and 240
same,Control Before AII,[2],180 and 230
same,% Inhibition,[2],7%
same,Average Change,[2],15
same,Change,[3],20 and 25
same,Response After AII,[3],185 and 250
same,Control Before AII,[3],165 and 225
same,% Inhibition,[3],59%
same,Average Change,[3],22.5
same,Change,[4],25 and 30
same,Response After AII,[4],185 and 255
same,Control Before AII,[4],160 and 225
same,% Inhibition,[4],50%
same,Average Change,[4],27.5
same,Change,[5],10 and 33
same,Response After AII,[5],195 and 240
same,Control Before AII,[5],185 and 207
same,% Inhibition,[5],61%
same,Average Change,[5],21.5
same,Change,[6],10 and 35
same,Response After AII,[6],195 and 255
same,Control Before AII,[6],185 and 220
same,% Inhibition,[6],59%
same,Average Change,[6],22.5
same,Change,[7],15 and 35
same,Response After AII,[7],200 and 260
same,Control Before AII,[7],185 and 225
same,% Inhibition,[7],55%
same,Average Change,[7],25
same,Change,[8],10 and 15
same,Response After AII,[8],210 and 250
same,Control Before AII,[8],200 and 235
same,% Inhibition,[8],76%
same,Average Change,[8],12.5
same,Change,[9],15 and 30
same,Response After AII,[9],205 and 250
same,Control Before AII,[9],190 and 220
same,% Inhibition,[9],57%
same,Average Change,[9],22.5
same,Change,[10],30 and 25
same,Response After AII,[10],200 and 260
same,Control Before AII,[10],170 and 235
same,% Inhibition,[10],48%
same,Average Change,[10],27.5
same,Change,[11],25 and 42
same,Response After AII,[11],195 and 267
same,Control Before AII,[11],170 and 225
same,% Inhibition,[11],36%
same,Average Change,[11],33.5
same,Change,[12],15 and 40
same,Response After AII,[12],200 and 250
same,Control Before AII,[12],185 and 210
same,% Inhibition,[12],48%
same,Average Change,[12],27.5
same,Change,[13],15 and 45
same,Response After AII,[13],200 and 270
same,Control Before AII,[13],185 and 225
same,% Inhibition,[13],43%
same,Average Change,[13],30
same,Change,[14],20 and 50
same,Response After AII,[14],205 and 275
same,Control Before AII,[14],185 and 225
same,% Inhibition,[14],33%
same,Average Change,[14],35
